From patent publication US8809316B2, “Use of immunosuppressant compounds in a new indication” (Novartis AG, priority 2008, dated 2014)

Legend:
Type in all cases: in vivo, Lewis rats
[1] = test system: Experimental Autoimmune Neuritis (EAN) rats; assay: EAN clinical (neurological) score, suppressive treatment
[2] = test system: sciatic nerves of EAN rats; assay: Luxol Fast Blue (LFB) staining, mean histological score of sciatic nerves of EAN rats; details: for Mean Histological Score: LFB staining, scale 0-3, sciatic nerves, Day 16
Description: (§1) To evaluate inflammatory cell infiltration and pathological changes in the PNS, five compound A-treated rats (at both concentrations) and five control EAN rats from Day 16 were sacrificed. Rats were deeply anaesthetized with ether and perfused intracardially with 4° C., 4% paraformaldehyde in PBS. Left and right sciatic nerves were quickly removed and post-fixed in 4% formaldehyde overnight at 4° C. Sciatic nerves were cut into two equally long segments, embedded in paraffin, serially sectioned (3 μm) and mounted on silan-covered slides.
The routine Luxol Fast Blue (LFB) staining was applied to show myelin. Histological changes between Compound A and control EAN rats were compared by an established semi-quantitative method. Briefly, four cross-sections from root and middle level of both sides of EAN rats were analyzed. All perivascular areas present in cross-sections were evaluated by two observers unaware of the treatment, and the degree of pathological alteration was graded semiquantitatively on the following scale: 0=normal perivascular area; 1=mild cellular infiltrate adjacent to the vessel; 2=cellular infiltration plus demyelination in immediate proximity to the vessel; and 3=cellular infiltration and demyelination throughout the section. Results were given as mean histological score (Hartung et al., 1988).

Body weight of EAN rats = assay: Body weight of EAN rats
[3] = test system: sciatic nerves of EAN rats; assay: Immunohistochemistry of inflammatory cell infiltration in sciatic nerves of EAN rats; details: for Area of immunoreactivity/area of sciatic nerves (%) for B cells (OX22+) / Area of immunoreactivity/area of sciatic nerves (%) for Macrophages (ED1+) / Area of immunoreactivity/area of sciatic nerves (%) for T cells (W3/13+): Day 16, EAN rats
Description: as §1
After dewaxing, cross-sections of sciatic nerves were boiled (in a 600 W microwave oven) for 15 min in citrate buffer (2.1 g sodium citrate/L, pH 6). Endogenous peroxidase was inhibited with 1% H2O2 in methanol for 15 min. Sections were incubated with 10% normal pig serum (Biochrom, Berlin, Germany) to block non-specific binding of immunoglobulins and then with the following monoclonal antibodies: W3/13 (1:50; Serotec, Oxford, UK) for T lymphocytes, OX22 (1:200; Serotec, Oxford, UK) for B cells, ED1 for activated macrophages (1:100; Serotec, Oxford, UK). Antibody binding to tissue sections was visualized with biotinylated IgG F(ab)2 secondary antibody fragments (rabbit anti-mouse or rabbit anti-goat; 1:400; DAKO, Hamburg, Germany). Subsequently, sections were incubated with a Streptavidin-Avidin-Biotin complex (DAKO, Hamburg, Germany), followed by development with diaminobenzidine (DAB) substrate (Fluka, Neu-Ulm, Germany). Finally, sections were counterstained with Maier's Hemalum.
To evaluate immunostaining data, the percentages of areas of immunoreactivity (IR) to areas of sciatic nerve cross-sections were calculated. Images of sciatic nerve cross-sections were captured under 50× magnification using Nikon Coolscope (Nikon, Dusseldorf, Germany) with fixed parameters. Images were analyzed using MetaMorph Offline 7.1 (Molecular Devices, Toronto, Canada). Areas of IR were selected by colour threshold segmentation and all parameters were fixed for all images. Areas of sciatic nerve cross-sections were manually selected. For each EAN rat, four cross-sections from root and middle levels of both sides were analyzed. Results were given as arithmetic means of percentages of areas of IR to areas of sciatic nerve cross-sections and standard errors of means (SEM).

[4] = 3 mg/kg intragastric once daily
[5] = 10 mg/kg intragastric once daily

CCc1cc(/C(C)=N/OCc2ccc(C3CCCCC3)c(C(F)(F)F)c2)ccc1CN1CC(C(=O)O)C1 [Compound A, 1-{4-[1-(4-Cyclohexyl-3-trifluoromethyl-benzyloxyimino)-ethyl]-2-ethyl-benzyl}-azetidine-3-carboxylic acid]
Day of maximal neurological scores ([1]; days from immunisation, control maximum at Day 13): 15 Day | Day of full recovery of rats ([1]; days from immunisation, control recovered by Day 22): ≤ 19 days | Day at which (greatly reduced) neurological signs were seen ([1]; days from immunisation, oral once daily until Day 22, control onset Day 9): 14 Day | Effect on clinical signs of EAN (in words) ([1]; relative to the water/cmc vehicle, FIGS. 1A and 1B): almost prevented the development of clinical signs of EAN | Mean Histological Score ([2]; 3 mg/kg): 0.51 | Mean Histological Score ([2]; 10 mg/kg): 0.25 | Mean histological scores measured by LFB staining (in words) ([2]; Compound A-treated versus control EAN rats): markedly lower | Weight loss during disease (in words) (Body weight of EAN rats; higher dosage suspension (10 mg/kg), FIG. 2B): small weight loss between days 11 and 12, followed by weight gain | Weight loss during disease (in words) (Body weight of EAN rats; lower compound A suspension (3 mg/kg), Day 11 to 16, FIG. 2B): reduced level of weight loss | Area of immunoreactivity/area of sciatic nerves (%) for B cells (OX22+) [3, 4]: 0.025% | Area of immunoreactivity/area of sciatic nerves (%) for Macrophages (ED1+) [3, 4]: 0.20% | Area of immunoreactivity/area of sciatic nerves (%) for T cells (W3/13+) [3, 4]: 0.08% | Area of immunoreactivity/area of sciatic nerves (%) for B cells (OX22+) [3, 5]: 0.021% | Area of immunoreactivity/area of sciatic nerves (%) for Macrophages (ED1+) [3, 5]: 0.11% | Area of immunoreactivity/area of sciatic nerves (%) for T cells (W3/13+) [3, 5]: 0.04% | Infiltration of T cells, B cells and macrophages in sciatic nerves (in words) ([3]; EAN rats, Day 16): significantly suppressed infiltration
